Data as given in the supplement of paper PMC10307832.

Tests used:
Experiment in all cases: relative viability (nuclei count vs DMSO), 5 days (fraction); higher = more cells survive
BAY61-3606 + Foretinib = compound: COC1=C(C=C(C=C1)C2=CC3=NC=CN3C(=N2)NC4=C(C=CC=N4)C(=O)N)OC [BAY61-3606] + COc1cc2c(Oc3ccc(NC(=O)C4(C(=O)Nc5ccc(F)cc5)CC4)cc3F)ccnc2cc1OCCCN1CCOCC1 [Foretinib] (partner 0.25 µM)
Method in brief: (§1)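 Lung cancer cell lines in 1536-well plates were dosed by pin tool the day after seeding, either with one drug alone or with a fixed anchor-drug dose plus five library-drug doses (not always all listed) in √10 steps. After 5 days, cells were fixed and their nuclei stained in one step (final 0.05% Triton X-100, 1% formaldehyde, 1 ug/ml Hoechst), then counted on 4× images. Relative viability is the nuclei count in treated wells divided by that in vehicle wells. Values are medians of duplicate plates.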

BAY61-3606 + Vorinostat = compound: COC1=C(C=C(C=C1)C2=CC3=NC=CN3C(=N2)NC4=C(C=CC=N4)C(=O)N)OC [BAY61-3606] + O=C(CCCCCCC(=O)Nc1ccccc1)NO [Vorinostat] (partner 1 µM)
Method in brief: as §1

Doxorubicin + Trametinib = compound: COc1cccc2c1C(=O)c1c(O)c3c(c(O)c1C2=O)C[C@@](O)(C(=O)CO)C[C@@H]3O[C@H]1C[C@H](N)[C@H](O)[C@H](C)O1 [Doxorubicin] + CC(=O)Nc1cccc(-n2c(=O)n(C3CC3)c(=O)c3c(Nc4ccc(I)cc4F)n(C)c(=O)c(C)c32)c1 [Trametinib] (partner 0.02 µM)
Method in brief: as §1

Doxorubicin + Navitoclax = compound: COc1cccc2c1C(=O)c1c(O)c3c(c(O)c1C2=O)C[C@@](O)(C(=O)CO)C[C@@H]3O[C@H]1C[C@H](N)[C@H](O)[C@H](C)O1 [Doxorubicin] + CC1(C)CCC(c2ccc(Cl)cc2)=C(CN2CCN(c3ccc(C(=O)NS(=O)(=O)c4ccc(N[C@H](CCN5CCOCC5)CSc5ccccc5)c(S(=O)(=O)C(F)(F)F)c4)cc3)CC2)C1 [Navitoclax] (partner 0.5 µM)
Method in brief: as §1

| Cell Line | relative viability (BAY61-3606 + Foretinib; first compound 0.02 µM) | relative viability (BAY61-3606 + Foretinib; first compound 0.06325 µM) | relative viability (BAY61-3606 + Foretinib; first compound 0.2 µM) | relative viability (BAY61-3606 + Foretinib; first compound 0.6325 µM) | relative viability (BAY61-3606 + Foretinib; first compound 2 µM) | relative viability (BAY61-3606 + Vorinostat; first compound 0.02 µM) | relative viability (BAY61-3606 + Vorinostat; first compound 0.06325 µM) | relative viability (BAY61-3606 + Vorinostat; first compound 0.2 µM) | relative viability (BAY61-3606 + Vorinostat; first compound 0.6325 µM) | relative viability (BAY61-3606 + Vorinostat; first compound 2 µM) | relative viability (Doxorubicin + Trametinib; first compound 0.001 µM) | relative viability (Doxorubicin + Trametinib; first compound 0.003162 µM) | relative viability (Doxorubicin + Trametinib; first compound 0.01 µM) | relative viability (Doxorubicin + Trametinib; first compound 0.03162 µM) | relative viability (Doxorubicin + Trametinib; first compound 0.1 µM) | relative viability (Doxorubicin + Navitoclax; first compound 0.001 µM) | relative viability (Doxorubicin + Navitoclax; first compound 0.003162 µM) | relative viability (Doxorubicin + Navitoclax; first compound 0.01 µM) | relative viability (Doxorubicin + Navitoclax; first compound 0.03162 µM) | relative viability (Doxorubicin + Navitoclax; first compound 0.1 µM) |
| --- | --- | --- | --- | --- | --- | --- | --- | --- | --- | --- | --- | --- | --- | --- | --- | --- | --- | --- | --- | --- |
| PC-14 | 0.992 | 0.957 | 0.911 | 0.963 | 0.931 | 0.808 | 0.799 | 0.845 | 0.87 | 0.667 | 0.751 | 0.74 | 0.536 | 0.162 | 0.0928 | 0.997 | 1.1 | 0.973 | 1.01 | 0.945 |
| RERF-LC-KJ | 0.899 | 0.922 | 0.828 | 0.886 | 0.779 | 0.701 | 0.684 | 0.704 | 0.881 | 0.614 | 0.659 | 1.02 | 0.696 | 0.514 | 0.513 | 1.05 | 0.765 | 1.12 |  | 1.05 |
| SK-LU-1 | 0.863 | 0.863 | 0.745 | 0.758 | 0.408 | 0.695 | 0.83 | 0.755 | 0.679 | 0.504 | 0.375 | 0.528 | 0.445 | 0.361 | 0.282 | 0.811 | 0.631 | 0.806 | 0.301 | 0.218 |
| SK-MES-1 | 1.08 | 0.918 | 0.85 | 0.96 | 0.839 | 1.14 | 1.13 | 1.05 | 1.11 | 0.86 | 0.563 | 0.572 | 0.513 | 0.283 | 0.192 | 1.28 | 0.745 | 1.09 | 1.01 | 0.76 |
| SW 1573 | 1.18 | 0.872 | 0.81 | 0.839 | 0.757 | 0.817 | 0.643 | 0.578 | 0.815 | 0.344 | 0.463 | 0.589 | 0.187 | 0.102 | 0.067 | 0.849 | 1.09 | 1.04 | 0.526 | 0.196 |
